System: MV-4-11 cells
Test: Gene expression microarray analysis (Affymetrix PrimeView) and GSEA
Assay type: cell-based, human
Set-up: RFU PODN (11730768_x_at) / Fold change /veh PODN (11730768_x_at) / RFU LINC00158 (11744669_a_at) / Fold change /veh LINC00158 (11744669_a_at) / RFU DUSP10 (11751237_a_at) / Fold change /veh DUSP10 (11751237_a_at) / RFU ID3 (11757404_x_at) / Fold change /veh ID3 (11757404_x_at) / RFU PLEKHG5 (11737974_s_at) / Fold change /veh PLEKHG5 (11737974_s_at) / RFU LRRC4B (11730491_at) / Fold change /veh LRRC4B (11730491_at) / RFU GIMAP4 (11747438_a_at) / Fold change /veh GIMAP4 (11747438_a_at) / RFU KRT8 (11758183_x_at) / Fold change /veh KRT8 (11758183_x_at) / RFU CNN1 (11734310_a_at) / Fold change /veh CNN1 (11734310_a_at) / RFU VPS37D (11726825_at) / Fold change /veh VPS37D (11726825_at) / RFU C10orf10 (11716522_x_at) / Fold change /veh C10orf10 (11716522_x_at) / RFU KIR2DL2 /// KIR2DL4 /// KIR2DL5A /// KIR2DL5B /// KIR2DS1 /// KIR2DS2 /// KIR2DS3 /// KIR2DS4 /// KIR3DL3 /// KIR3DL3 /// KIR3DS1 (11738374_at) / Fold change /veh KIR2DL2 /// KIR2DL4 /// KIR2DL5A /// KIR2DL5B /// KIR2DS1 /// KIR2DS2 /// KIR2DS3 /// KIR2DS4 /// KIR3DL3 /// KIR3DL3 /// KIR3DS1 (11738374_at) / RFU C1QL1 (11718748_at) / Fold change /veh C1QL1 (11718748_at) / RFU TMPRSS4 (11747572_a_at) / Fold change /veh TMPRSS4 (11747572_a_at) / RFU HAMP (11756126_x_at) / Fold change /veh HAMP (11756126_x_at) / RFU RNFT2 (11725882_a_at) / Fold change /veh RNFT2 (11725882_a_at) / RFU NR4A2 (11747474_a_at) / Fold change /veh NR4A2 (11747474_a_at) / RFU ABCC12 (11746883_a_at) / Fold change /veh ABCC12 (11746883_a_at) / RFU TMEM136 (11760407_x_at) / Fold change /veh TMEM136 (11760407_x_at) / RFU CLDN22 /// WWC2 (11732394_at) / Fold change /veh CLDN22 /// WWC2 (11732394_at) / RFU HLA-DPB1 (11760878_x_at) / Fold change /veh HLA-DPB1 (11760878_x_at) / RFU SPINT1 (11716480_a_at) / Fold change /veh SPINT1 (11716480_a_at) / RFU GAP43 (11754022_s_at) / Fold change /veh GAP43 (11754022_s_at) / RFU A4GNT (11735810_at) / Fold change /veh A4GNT (11735810_at) / RFU PRB3 (11715151_x_at) / Fold change /veh PRB3 (11715151_x_at) / RFU TUBB4B (11761932_at) / Fold change /veh TUBB4B (11761932_at) / RFU CAPN14 (11732068_a_at) / Fold change /veh CAPN14 (11732068_a_at) / RFU TMCC2 (11721928_a_at) / Fold change /veh TMCC2 (11721928_a_at) / RFU IRGQ (11745062_a_at) / Fold change /veh IRGQ (11745062_a_at) / RFU FAM174B (11720279_a_at) / Fold change /veh FAM174B (11720279_a_at) / RFU TMPRSS4 (11748680_a_at) / Fold change /veh TMPRSS4 (11748680_a_at) / RFU FAM212B (11763350_a_at) / Fold change /veh FAM212B (11763350_a_at) / RFU PLEKHG5 (11743358_a_at) / Fold change /veh PLEKHG5 (11743358_a_at) / RFU ZSCAN30 (11745921_a_at) / Fold change /veh ZSCAN30 (11745921_a_at) / RFU CMKLR1 (11741424_a_at) / Fold change /veh CMKLR1 (11741424_a_at) / RFU LOC101060620 /// MAPK8IP1 (11723275_at) / Fold change /veh LOC101060620 /// MAPK8IP1 (11723275_at) / RFU SPTSSB (11747773_x_at) / Fold change /veh SPTSSB (11747773_x_at) / RFU PRSS12 (11739890_at) / Fold change /veh PRSS12 (11739890_at) / RFU BIN1 (11741810_x_at) / Fold change /veh BIN1 (11741810_x_at) / RFU WNT11 (11732464_a_at) / Fold change /veh WNT11 (11732464_a_at) / RFU C10orf10 (11716521_a_at) / Fold change /veh C10orf10 (11716521_a_at) / RFU C5orf56 (11738089_at) / Fold change /veh C5orf56 (11738089_at) / RFU CYB561 (11721691_x_at) / Fold change /veh CYB561 (11721691_x_at) / RFU ANKRD19P (11752326_a_at) / Fold change /veh ANKRD19P (11752326_a_at) / RFU OR2T12 /// OR2T33 /// OR2T8 (11738714_s_at) / Fold change /veh OR2T12 /// OR2T33 /// OR2T8 (11738714_s_at) / RFU VCAN (11748164_a_at) / Fold change /veh VCAN (11748164_a_at) / RFU JSRP1 (11732532_at) / Fold change /veh JSRP1 (11732532_at) / RFU KRTAP10-11 (11738290_x_at) / Fold change /veh KRTAP10-11 (11738290_x_at) / RFU MYO3A (11730013_a_at) / Fold change /veh MYO3A (11730013_a_at) / RFU EBF3 (11725865_a_at) / Fold change /veh EBF3 (11725865_a_at) / RFU CAMK2N1 (11719241_x_at) / Fold change /veh CAMK2N1 (11719241_x_at) / RFU C5orf56 (11738088_a_at) / Fold change /veh C5orf56 (11738088_a_at) / RFU OLFML3 (11715873_a_at) / Fold change /veh OLFML3 (11715873_a_at) / RFU LOC100653217 /// NTM (11731650_a_at) / Fold change /veh LOC100653217 /// NTM (11731650_a_at) / RFU MAPK11 (11762145_a_at) / Fold change /veh MAPK11 (11762145_a_at) / RFU FIZ1 (11724087_x_at) / Fold change /veh FIZ1 (11724087_x_at) / RFU OASL (11726364_x_at) / Fold change /veh OASL (11726364_x_at) / RFU SOX15 (11748057_x_at) / Fold change /veh SOX15 (11748057_x_at) / RFU CD79A (11719716_a_at) / Fold change /veh CD79A (11719716_a_at) / RFU HIST1H1D (11736915_at) / Fold change /veh HIST1H1D (11736915_at) / RFU CASKIN2 (11723855_a_at) / Fold change /veh CASKIN2 (11723855_a_at) / RFU LOC730098 (11760151_x_at) / Fold change /veh LOC730098 (11760151_x_at) / RFU OR4N2 (11742367_at) / Fold change /veh OR4N2 (11742367_at) / RFU PRRT2 (11749266_a_at) / Fold change /veh PRRT2 (11749266_a_at) / RFU SNX32 (11753110_a_at) / Fold change /veh SNX32 (11753110_a_at) / RFU CDHR5 (11726645_a_at) / Fold change /veh CDHR5 (11726645_a_at) / RFU RCAN1 (11760418_a_at) / Fold change /veh RCAN1 (11760418_a_at) / RFU FAM167A (11723789_a_at) / Fold change /veh FAM167A (11723789_a_at) / RFU FAM26E (11764081_at) / Fold change /veh FAM26E (11764081_at) / RFU ISYNA1 (11749810_s_at) / Fold change /veh ISYNA1 (11749810_s_at) / RFU ACY1 (11761880_at) / Fold change /veh ACY1 (11761880_at) / RFU 11764098_at / Fold change /veh 11764098_at / RFU SAMD14 (11745864_x_at) / Fold change /veh SAMD14 (11745864_x_at) / RFU NPB (11741838_a_at) / Fold change /veh NPB (11741838_a_at) / RFU TMPRSS6 (11731388_a_at) / Fold change /veh TMPRSS6 (11731388_a_at) / RFU KRTAP10-2 (11738614_at) / Fold change /veh KRTAP10-2 (11738614_at) / RFU ARHGAP8 /// PRR5-ARHGAP8 (11727945_x_at) / Fold change /veh ARHGAP8 /// PRR5-ARHGAP8 (11727945_x_at) / RFU KRTAP5-7 /// NADSYN1 (11734609_at) / Fold change /veh KRTAP5-7 /// NADSYN1 (11734609_at) / RFU RASL12 (11751679_a_at) / Fold change /veh RASL12 (11751679_a_at) / RFU CDKN2B (11736163_a_at) / Fold change /veh CDKN2B (11736163_a_at) / RFU PRF1 (11729649_at) / Fold change /veh PRF1 (11729649_at) / RFU, ZNF638 /// ZNF638-IT1 / Fold change vs veh, ZNF638 /// ZNF638-IT1 / RFU, PANK3 / Fold change vs veh, PANK3 / RFU, SH3YL1 / Fold change vs veh, SH3YL1 / RFU, ZEB2 / Fold change vs veh, ZEB2 / RFU, NRIP1 / Fold change vs veh, NRIP1 / RFU, PTTG1IP / Fold change vs veh, PTTG1IP / RFU, CAPN2 / Fold change vs veh, CAPN2 / RFU, MED14 / Fold change vs veh, MED14 / RFU, SNORA58 / Fold change vs veh, SNORA58 / RFU, C1orf63 / Fold change vs veh, C1orf63 / RFU, LRRFIP1 / Fold change vs veh, LRRFIP1 / RFU, NDUFAF7 / Fold change vs veh, NDUFAF7 / RFU, SLC12A2 / Fold change vs veh, SLC12A2 / RFU, IBTK / Fold change vs veh, IBTK / RFU, ESF1 / Fold change vs veh, ESF1 / Fold change vs veh, TMEM50B / RFU, TAOK1 / Fold change vs veh, TAOK1 / RFU, ACBD3 / Fold change vs veh, ACBD3 / RFU, TMA16 / Fold change vs veh, TMA16 / RFU, RWDD3 / Fold change vs veh, RWDD3 / RFU, BCAT1 / Fold change vs veh, BCAT1 / RFU, EDEM3 / Fold change vs veh, EDEM3 / RFU, TMEM33 / Fold change vs veh, TMEM33 / RFU, WDR75 / Fold change vs veh, WDR75 / RFU, AHCTF1 / Fold change vs veh, AHCTF1 / RFU, TFRC / Fold change vs veh, TFRC / RFU, ZDHHC17 / Fold change vs veh, ZDHHC17 / RFU, NOM1 / Fold change vs veh, NOM1 / RFU, ARL8B / Fold change vs veh, ARL8B / RFU, ZBTB11 / Fold change vs veh, ZBTB11 / RFU, TAMM41 / Fold change vs veh, TAMM41 / RFU, KIAA1704 /// LOC100996395 / Fold change vs veh, KIAA1704 /// LOC100996395 / RFU, ING1 / Fold change vs veh, ING1 / RFU, TRMT61B / Fold change vs veh, TRMT61B / RFU, FUBP3 / Fold change vs veh, FUBP3 / RFU, TP53 / Fold change vs veh, TP53 / RFU, TNKS2 / Fold change vs veh, TNKS2 / RFU, ZFP14 / Fold change vs veh, ZFP14 / RFU, ACTR2 / Fold change vs veh, ACTR2 / RFU, PPP3R1 / Fold change vs veh, PPP3R1 / RFU, PIK3R1 / Fold change vs veh, PIK3R1 / RFU, HNRNPA1 / Fold change vs veh, HNRNPA1 / RFU, RNF170 / Fold change vs veh, RNF170 / RFU, ZNF28 / Fold change vs veh, ZNF28 / RFU, RNGTT / Fold change vs veh, RNGTT / RFU, OGT / Fold change vs veh, OGT / RFU, BRD1 / Fold change vs veh, BRD1 / RFU, MARS / Fold change vs veh, MARS / RFU, ZNF655 / Fold change vs veh, ZNF655 / RFU, FAHD1 / Fold change vs veh, FAHD1 / RFU, BDP1 / Fold change vs veh, BDP1 / RFU, LRRCC1 / Fold change vs veh, LRRCC1 / RFU, ARID1A / Fold change vs veh, ARID1A / RFU, ZNF146 / Fold change vs veh, ZNF146 / RFU, ZNF330 / Fold change vs veh, ZNF330 / RFU, GPN3 / Fold change vs veh, GPN3 / RFU, C9orf123 / Fold change vs veh, C9orf123 / RFU, N4BP2L2 / Fold change vs veh, N4BP2L2 / RFU, ARFIP1 / Fold change vs veh, ARFIP1 / RFU, FAM179B / Fold change vs veh, FAM179B / RFU, BCL10 / Fold change vs veh, BCL10 / RFU, UHRF1BP1L / Fold change vs veh, UHRF1BP1L / RFU, BET1 / Fold change vs veh, BET1 / RFU, CNOT2 / Fold change vs veh, CNOT2 / RFU, ZNF268 / Fold change vs veh, ZNF268 / Fold change vs veh, ZNF507 / RFU, DGCR2 / Fold change vs veh, DGCR2 / RFU, WDSUB1 / Fold change vs veh, WDSUB1 / Fold change vs veh, HSP90B1 /// MIR3652 / RFU, ADSS / Fold change vs veh, ADSS / RFU, GK / Fold change vs veh, GK / RFU, ZNF148 / Fold change vs veh, ZNF148 / RFU, TAF9 / Fold change vs veh, TAF9 / RFU, SLC1A5 / Fold change vs veh, SLC1A5 / RFU, SLMO2 / Fold change vs veh, SLMO2 / RFU, ABCC4 / Fold change vs veh, ABCC4 / RFU, LOC101060439 /// RAP1B / Fold change vs veh, LOC101060439 /// RAP1B / RFU, RFX7 / Fold change vs veh, RFX7 / RFU, GTPBP10 / Fold change vs veh, GTPBP10 / RFU, CNEP1R1 / Fold change vs veh, CNEP1R1 / RFU, BIVM-ERCC5 /// ERCC5 / Fold change vs veh, BIVM-ERCC5 /// ERCC5 / RFU, ILF3 / Fold change vs veh, ILF3 / RFU 11762660_at / Fold change /veh 11762660_at / RFU VCAN (11757783_s_at) / Fold change /veh VCAN (11757783_s_at) / RFU DDX43 (11728927_at) / Fold change /veh DDX43 (11728927_at) / RFU KRT8 (11758188_x_at) / Fold change /veh KRT8 (11758188_x_at) / RFU NKD1 (11759106_at) / Fold change /veh NKD1 (11759106_at) / RFU SRD5A1 (11742802_a_at) / Fold change /veh SRD5A1 (11742802_a_at) / RFU TPSAB1 /// TPSB2 (11721975_s_at) / Fold change /veh TPSAB1 /// TPSB2 (11721975_s_at) / RFU GSTM3 (11746129_a_at) / Fold change /veh GSTM3 (11746129_a_at) / RFU IL23R (11737362_x_at) / Fold change /veh IL23R (11737362_x_at) / RFU TMEM51 (11727254_a_at) / Fold change /veh TMEM51 (11727254_a_at) / RFU PIWIL2 (11732686_x_at) / Fold change /veh PIWIL2 (11732686_x_at) / RFU ORM1 (11744905_x_at) / Fold change /veh ORM1 (11744905_x_at) / RFU CCDC152 (11743942_at) / Fold change /veh CCDC152 (11743942_at) / RFU ECM1 (11717891_a_at) / Fold change /veh ECM1 (11717891_a_at) / RFU IL23R (11748794_a_at) / Fold change /veh IL23R (11748794_a_at) / RFU TNFAIP8L3 (11732012_x_at) / Fold change /veh TNFAIP8L3 (11732012_x_at) / RFU MBOAT4 (11741988_at) / Fold change /veh MBOAT4 (11741988_at) / RFU 11764193_at / Fold change /veh 11764193_at / RFU TMEM53 (11763286_at) / Fold change /veh TMEM53 (11763286_at) / RFU MAGEB2 (11727129_at) / Fold change /veh MAGEB2 (11727129_at) / RFU TMEM200A (11744735_a_at) / Fold change /veh TMEM200A (11744735_a_at) / RFU CCDC152 (11751479_a_at) / Fold change /veh CCDC152 (11751479_a_at) / RFU FAM211A (11726209_a_at) / Fold change /veh FAM211A (11726209_a_at) / RFU RGS16 (11746705_a_at) / Fold change /veh RGS16 (11746705_a_at) / RFU VCAN (11755009_s_at) / Fold change /veh VCAN (11755009_s_at) / RFU RHOB (11743442_s_at) / Fold change /veh RHOB (11743442_s_at) / RFU RGS16 (11720943_a_at) / Fold change /veh RGS16 (11720943_a_at) / RFU RGS16 (11720944_at) / Fold change /veh RGS16 (11720944_at) / RFU, VPS4B / Fold change vs veh, VPS4B / RFU, CREB1 / Fold change vs veh, CREB1 / RFU, DNAJC13 / Fold change vs veh, DNAJC13 / RFU, GNAQ / Fold change vs veh, GNAQ / RFU, CDK5R1 / Fold change vs veh, CDK5R1 / RFU, ZRANB3 / Fold change vs veh, ZRANB3 / RFU, CUL4A / Fold change vs veh, CUL4A / RFU, CCNY / Fold change vs veh, CCNY / RFU, UFL1 / Fold change vs veh, UFL1 / RFU, COG3 / Fold change vs veh, COG3 / RFU, DIAPH2 / Fold change vs veh, DIAPH2 / RFU, SKA2 / Fold change vs veh, SKA2 / RFU, AFF3 / Fold change vs veh, AFF3 / RFU, LMF1 / Fold change vs veh, LMF1 / RFU, IPO11 / Fold change vs veh, IPO11 / RFU, DFFB / Fold change vs veh, DFFB / RFU, FOXP1 / Fold change vs veh, FOXP1 / RFU, CARD8 / Fold change vs veh, CARD8 / RFU, STRN3 / Fold change vs veh, STRN3 / RFU, ADK / Fold change vs veh, ADK / RFU, RASSF2 / Fold change vs veh, RASSF2 / RFU, WIPF1 / Fold change vs veh, WIPF1 / RFU, LARP1B / Fold change vs veh, LARP1B / RFU, RASA1 / Fold change vs veh, RASA1 / RFU, RB1 / Fold change vs veh, RB1 / RFU, PPFIA1 / Fold change vs veh, PPFIA1 / RFU, MAT2A / Fold change vs veh, MAT2A / RFU, CCT5 / Fold change vs veh, CCT5 / RFU, WDR92 / Fold change vs veh, WDR92 / RFU, CUX1 / Fold change vs veh, CUX1 / RFU, TTC7A / Fold change vs veh, TTC7A / RFU, TMEM135 / Fold change vs veh, TMEM135 / RFU, DEPTOR / Fold change vs veh, DEPTOR / RFU, CPM / Fold change vs veh, CPM / RFU, DNAJB6 / Fold change vs veh, DNAJB6 / RFU, CACNA2D3 / Fold change vs veh, CACNA2D3 / RFU, DTX4 / Fold change vs veh, DTX4 / RFU, TFCP2 / Fold change vs veh, TFCP2 / RFU, GMCL1 /// GMCL1P1 / Fold change vs veh, GMCL1 /// GMCL1P1 / RFU, AEBP2 / Fold change vs veh, AEBP2 / RFU, SNHG1 /// SNORD22 /// SNORD25 /// SNORD26 /// SNORD27 /// SNORD28 /// SNORD29 /// SNORD31 / Fold change vs veh, SNHG1 /// SNORD22 /// SNORD25 /// SNORD26 /// SNORD27 /// SNORD28 /// SNORD29 /// SNORD31 / Fold change (Aza/veh), C12orf56 (ProbeSet 11735607_a_at) / Fold change (ACY-1035/veh), C12orf56 (ProbeSet 11735607_a_at) / Fold change (Aza/veh), FGFR1OP (ProbeSet 11751329_s_at) / Fold change (ACY-1035/veh), FGFR1OP (ProbeSet 11751329_s_at) / Fold change (Aza/veh), VPS36 (ProbeSet 11739960_a_at) / Fold change (ACY-1035/veh), VPS36 (ProbeSet 11739960_a_at) / RFU SYPL1 (11715823_x_at) / Fold change /veh SYPL1 (11715823_x_at) / RFU IGFBP7 (11715501_s_at) / Fold change /veh IGFBP7 (11715501_s_at) / RFU REEP3 (11722064_at) / Fold change /veh REEP3 (11722064_at) / RFU IGLL1 (11728026_x_at) / Fold change /veh IGLL1 (11728026_x_at): dose or concentration left out as unconfirmed
Details: ProbeSet 11755070_a_at; LIST D

Nc1ncn([C@@H]2O[C@H](CO)[C@@H](O)[C@H]2O)c(=O)n1 [azacitidine]
RFU, CARD8: 161.67 RFU
